SMILES strings stand for the structures. Some results are limits rather than exact numbers.

The source of these data is ChEMBL document CHEMBL4811216, “Chemotherapy for human schistosomiasis: how far have we come? What's new? Where do we go from here?” (RSC Med Chem, 2020).

In one assay the test system is Schistosoma japonicum. Nature of the assay: Antischistosomal activity against Schistosoma japonicum assessed as worm mortality at 5 ug/ml incubated for 72 hrs by microscopic method relative to control. The class given is functional. The settings on record: dose 5 µg/ml.
Assay [1] deals with Plasmodium falciparum. Nature of the assay: Antiplasmodial activity against Plasmodium falciparum 3D7 incubated for 72 hrs by SYBR Green1 by fluorometric assay. The note with it: 3D7, 72 h. Format: functional, organism-based.
Assay [2] has as its system Plasmodium falciparum. Nature of the assay: Antiplasmodial activity against Plasmodium falciparum Dd2 incubated for 72 hrs by SYBR Green1 by fluorometric assay. Format: functional, organism-based. The settings on record: Dd2, 72 h.
Assay [3] concerns Schistosoma mansoni. Nature of the assay: Antischistosomal activity against Schistosoma mansoni at 50 uM measured after 120 hrs relative to control. The class given is functional.
Assay [4] deals with Schistosoma mansoni. Nature of the assay: Antischistosomal activity against Schistosoma mansoni BH infected in Swiss Webster mouse assessed as worm burden reduction at 100 mg/kg, po administered for 5 consecutive days and measured 15 days post-treatment (reference value: 19.8%). The settings on record: time 15 day. Further details: scale not given: the % may be the effect or the level left. The class given is functional.

Assay [5] relates to Schistosoma mansoni. Nature of the assay: Antischistosomal activity against Schistosoma mansoni incubated for 24 hrs by MTT assay. The class given is functional, organism-based.
Assay [6] relates to Schistosoma mansoni. Nature of the assay: Antischistosomal activity against Schistosoma mansoni assessed as worm death at <= 100 uM measured within 72 hrs relative to control. Format: functional. The settings on record: dose microM <=100.
The test system of assay [7] is Schistosoma mansoni. Nature of the assay: Antischistosomal activity against Schistosoma mansoni assessed as tegument damage at <=100 uM measured within 72 hrs relative to control. The note with it: dose microM <=100. Format: functional.
Assay [8] has as its system Schistosoma mansoni. Nature of the assay: Antischistosomal activity against Schistosoma mansoni assessed as reduction in worm motor activity at <=100 uM measured within 72 hrs relative to control. On the set-up: scale not given: the % may be the effect or the level left. The class given is functional. The settings on record: dose microM <=100.
Assay [9] relates to Schistosoma mansoni. Nature of the assay: Antischistosomal activity against Schistosoma mansoni LE schistosomula measured every 24 hrs for 72 hrs by inverted microscopy. The class given is functional.
In assay [10] the test system is Schistosoma mansoni. Nature of the assay: Antischistosomal activity against adult Schistosoma mansoni LE measured every 24 hrs for 72 hrs by inverted microscopy. Format: functional.
For assay [11], the system named is Schistosoma mansoni. Nature of the assay: Antischistosomal activity against juvenile Schistosoma mansoni LE measured every 24 hrs for 72 hrs by inverted microscopy. Format: functional.
Assay [12] concerns Schistosoma mansoni. Nature of the assay: Antischistosomal activity against Schistosoma mansoni LE assessed as reduction in egg population at 100 uM measured after 72 hrs by inverted microscopy relative to control. Format: functional. Further details: scale not given: the % may be the effect or the level left.
The test system of assay [13] is Schistosoma mansoni. Nature of the assay: Antischistosomal activity against Schistosoma mansoni LE assessed as reduction in egg development by measuring developed eggs at 100 uM measured after 5 days relative to control. The class given is functional. The settings on record: time 5 day. On the set-up: scale not given: the % may be the effect or the level left.
The subject of assay [14] is Schistosoma mansoni. Nature of the assay: Antischistosomal activity against Schistosoma mansoni LE infected in BALB/c mouse assessed as reduction in worm burden at 10 mg/kg, ip administered for 5 consecutive days starting from day 1 post infection by microscopic method relative to control. The class given is functional. Further details: scale not given: the % may be the effect or the level left.

Assay [15] concerns Schistosoma mansoni. Nature of the assay: Antischistosomal activity against Schistosoma mansoni LE infected in BALB/c mouse assessed as reduction in worm burden at 10 mg/kg, ip administered for 5 consecutive days starting from day 23 by microscopic method relative to control. The class given is functional. Further details: scale not given: the % may be the effect or the level left.

For assay [16], the system named is Schistosoma mansoni. Nature of the assay: Antischistosomal activity against Schistosoma mansoni LE infected in BALB/c mouse assessed as reduction in worm burden at 10 mg/kg, ip administered for 5 consecutive days starting from day 37 by microscopic method relative to control. On the set-up: scale not given: the % may be the effect or the level left. Format: functional.

For assay [17], the system named is Schistosoma mansoni. Nature of the assay: Antischistosomal activity against Schistosoma mansoni LE infected in BALB/c mouse assessed as reduction in worm burden at 50 mg/kg, ip administered for 5 consecutive days starting from day 1 post infection by microscopic method relative to control. The class given is functional. On the set-up: scale not given: the % may be the effect or the level left.

In assay [18] the test system is Schistosoma mansoni. Nature of the assay: Antischistosomal activity against Schistosoma mansoni LE infected in BALB/c mouse assessed as reduction in worm burden at 50 mg/kg, ip administered for 5 consecutive days starting from day 23 post infection by microscopic method relative to control. The class given is functional. Further details: scale not given: the % may be the effect or the level left.

The subject of assay [19] is Schistosoma mansoni. Nature of the assay: Antischistosomal activity against Schistosoma mansoni LE infected in BALB/c mouse assessed as reduction in worm burden at 50 mg/kg, ip administered for 5 consecutive days starting from day 37 post infection by microscopic method relative to control. The class given is functional. Further details: scale not given: the % may be the effect or the level left.

The subject of assay [20] is Schistosoma mansoni. Nature of the assay: Antischistosomal activity against Schistosoma mansoni LE infected in BALB/c mouse assessed as reduction in worm burden at 100 mg/kg, ip administered for 5 consecutive days starting from day 1 post infection by microscopic method relative to control. The class given is functional. On the set-up: scale not given: the % may be the effect or the level left.

Assay [21] has as its system Schistosoma mansoni. Nature of the assay: Antischistosomal activity against Schistosoma mansoni LE infected in BALB/c mouse assessed as reduction in worm burden at 100 mg/kg, ip administered for 5 consecutive days starting from day 23 post infection by microscopic method relative to control. Format: functional. Further details: scale not given: the % may be the effect or the level left.

Assay [22] concerns Schistosoma mansoni. Nature of the assay: Antischistosomal activity against Schistosoma mansoni LE infected in BALB/c mouse assessed as reduction in worm burden at 100 mg/kg, ip administered for 5 consecutive days starting from day 37 post infection by microscopic method relative to control. The class given is functional. Further details: scale not given: the % may be the effect or the level left.

The subject of assay [23] is Schistosoma mansoni. Nature of the assay: Antischistosomal activity against Schistosoma mansoni LE infected in BALB/c mouse assessed as reduction in egg burden at 10 mg/kg, ip administered for 5 consecutive days starting from day 1 post infection by microscopic method relative to control. The class given is functional. On the set-up: scale not given: the % may be the effect or the level left.

The subject of assay [24] is Schistosoma mansoni. Nature of the assay: Antischistosomal activity against Schistosoma mansoni LE infected in BALB/c mouse assessed as reduction in egg burden at 10 mg/kg, ip administered for 5 consecutive days starting from day 23 post infection by microscopic method relative to control. The class given is functional. Further details: scale not given: the % may be the effect or the level left.

For assay [25], the system named is Schistosoma mansoni. Nature of the assay: Antischistosomal activity against Schistosoma mansoni LE infected in BALB/c mouse assessed as reduction in egg burden at 10 mg/kg, ip administered for 5 consecutive days starting from day 37 post infection by microscopic method relative to control. The class given is functional. On the set-up: scale not given: the % may be the effect or the level left.

Assay [26] has as its system Schistosoma mansoni. Nature of the assay: Antischistosomal activity against Schistosoma mansoni LE infected in BALB/c mouse assessed as reduction in egg burden at 50 mg/kg, ip administered for 5 consecutive days starting from day 1 post infection by microscopic method relative to control. Further details: scale not given: the % may be the effect or the level left. The class given is functional.

Assay [27] has as its system Schistosoma mansoni. Nature of the assay: Antischistosomal activity against Schistosoma mansoni LE infected in BALB/c mouse assessed as reduction in egg burden at 50 mg/kg, ip administered for 5 consecutive days starting from day 23 post infection by microscopic method relative to control. Format: functional. Further details: scale not given: the % may be the effect or the level left.

Assay [28] has as its system Schistosoma mansoni. Nature of the assay: Antischistosomal activity against Schistosoma mansoni LE infected in BALB/c mouse assessed as reduction in egg burden at 50 mg/kg, ip administered for 5 consecutive days starting from day 37 post infection by microscopic method relative to control. Format: functional. Further details: scale not given: the % may be the effect or the level left.

The subject of assay [29] is Schistosoma mansoni. Nature of the assay: Antischistosomal activity against Schistosoma mansoni LE infected in BALB/c mouse assessed as reduction in egg burden at 100 mg/kg, ip administered for 5 consecutive days starting from day 1 post infection by microscopic method relative to control. On the set-up: scale not given: the % may be the effect or the level left. Format: functional.

Assay [30] has as its system Schistosoma mansoni. Nature of the assay: Antischistosomal activity against Schistosoma mansoni LE infected in BALB/c mouse assessed as reduction in egg burden at 100 mg/kg, ip administered for 5 consecutive days starting from day 23 post infection by microscopic method relative to control. Format: functional. On the set-up: scale not given: the % may be the effect or the level left.

Assay [31] concerns Schistosoma mansoni. Nature of the assay: Antischistosomal activity against Schistosoma mansoni LE infected in BALB/c mouse assessed as reduction in egg burden at 100 mg/kg, ip administered for 5 consecutive days starting from day 37 post infection by microscopic method relative to control. Format: functional. Further details: scale not given: the % may be the effect or the level left.

For assay [32], the system named is Schistosoma mansoni. Nature of the assay: Antischistosomal activity against Schistosoma mansoni NRMI schistosomula incubated for 24 hrs. Format: functional.
Assay [33] concerns Schistosoma mansoni. Nature of the assay: Antischistosomal activity against Schistosoma mansoni BH infected in Balb/c mouse assessed as reduction in worm burden at 400 mg/kg, po measurement after 2 weeks. The class given is functional. Further details: scale not given: the % may be the effect or the level left.
In a further assay the target is T1, ATP-diphosphohydrolase 1 (Schistosoma mansoni, UniProt Q7YTA4).
T1 sequence (Q7YTA4 whole entry): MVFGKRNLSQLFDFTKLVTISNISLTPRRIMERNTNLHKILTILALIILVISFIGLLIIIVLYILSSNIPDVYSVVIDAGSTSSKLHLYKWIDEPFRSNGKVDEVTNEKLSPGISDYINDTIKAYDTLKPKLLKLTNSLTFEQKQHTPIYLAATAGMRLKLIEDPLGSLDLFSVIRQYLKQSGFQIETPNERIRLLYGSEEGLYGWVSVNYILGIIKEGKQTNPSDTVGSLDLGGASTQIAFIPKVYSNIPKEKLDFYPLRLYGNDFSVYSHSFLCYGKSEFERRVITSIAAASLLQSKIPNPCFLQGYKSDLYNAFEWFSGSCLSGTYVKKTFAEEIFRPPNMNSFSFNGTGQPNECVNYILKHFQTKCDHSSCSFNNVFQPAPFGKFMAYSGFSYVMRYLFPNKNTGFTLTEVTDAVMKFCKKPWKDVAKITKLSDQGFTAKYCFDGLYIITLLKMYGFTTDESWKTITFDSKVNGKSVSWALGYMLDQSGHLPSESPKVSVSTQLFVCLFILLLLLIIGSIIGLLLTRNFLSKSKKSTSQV
Nature of the assay: Inhibition of Schistosoma mansoni ATPDase1 incubated for 30 mins.

Assay [34] deals with Schistosoma mansoni. Nature of the assay: Antischistosomal activity against Schistosoma mansoni LE assessed as worm vitality at 20 uM incubated for 24 hrs by microscopic method relative to control. Format: functional.
Assay [35] relates to Schistosoma mansoni. Nature of the assay: Antischistosomal activity against Schistosoma mansoni LE assessed as worm mortality at 20 uM incubated for 72 hrs by microscopic method relative to control. The class given is functional.

Regarding `CCCCNCC(O)Cn1c2ccc(Cl)cc2c2cc(Cl)ccc21` (configuration not stated), the Activity in the assay on Schistosoma japonicum is 100%. Moreover, the IC50 was found to be 0.274 µM in the assay with Plasmodium falciparum [1] and 0.047 µM in the assay on Plasmodium falciparum [2].
On to `CN(Nc1ccc(Cl)cc1)C1NC(=O)N(Cc2ccccc2)C1=S` (configuration not stated), for which the Activity is on record as 100% in the assay with Schistosoma mansoni [3] and 70.5% in the assay with Schistosoma mansoni [4].
As to `C/C=C/c1cc(OC)c2c(c1)C(C)C(c1ccc(O)c(OC)c1)O2` (configuration not stated) [DEHRODIISOEUGENOL], in the assay on Schistosoma mansoni [5], the midpoint of inhibition, the IC50, lay at 53.5 µM. Moreover, the mortality in the assay with Schistosoma mansoni [6] was determined as 100%. The Activity in the assay on Schistosoma mansoni [7] turned out to be 25%; in the assay with Schistosoma mansoni [8], 100%.
Turning to `O=C1OC[C@@H](Cc2cc3c(cc2[N+](=O)[O-])OCO3)[C@@H]1Cc1cc2c(cc1[N+](=O)[O-])OCO2`, the results for the LC50 in the assay with Schistosoma mansoni [9], with Schistosoma mansoni [10] and in the assay on Schistosoma mansoni [11] were 20.4 µM, 102 µM and 180 µM, respectively. For the same molecule, the Activity is over 83% with Schistosoma mansoni [12]; under 10% in the assay with Schistosoma mansoni [13]; 33% in the assay on Schistosoma mansoni [14]; 33% in the assay on Schistosoma mansoni [15]; 33% in the assay on Schistosoma mansoni [16]; 36% in the assay on Schistosoma mansoni [17]. Further, the Activity with Schistosoma mansoni [18] is 36%; in the assay with Schistosoma mansoni [19], 36%; with Schistosoma mansoni [20] it was 39%; with Schistosoma mansoni [21] it was 39%; in the assay on Schistosoma mansoni [22] it was 39%; with Schistosoma mansoni [23], 40%. In addition, the Activity in the assay with Schistosoma mansoni [24] was found to be 40%; in the assay on Schistosoma mansoni [25], 40%; with Schistosoma mansoni [26] it was 52%; in the assay on Schistosoma mansoni [27], 52%; in the assay with Schistosoma mansoni [28] it was 52%; in the assay with Schistosoma mansoni [29] it was 16%. For the same molecule, the Activity with Schistosoma mansoni [30] and in the assay on Schistosoma mansoni [31] was 16% each time.
With `CC(C)c1cc2c(cc1O)C(=O)C[C@H]1C(C)(C)CCC[C@]21C`, in the assay on Schistosoma mansoni [32], the LC50 was determined as 19.1 µM.
`COc1ccc(/C=C/C(=O)c2ccccc2O)cc1`: in the assay with Schistosoma mansoni [33], the Activity stood at 32.8%. On ATP-diphosphohydrolase 1, this molecule registered an IC50 of 30.6 µM.
On to `COc1cc(OC)c(/C=C2\NC(=O)N(Cc3c(F)cccc3Cl)C2=S)c(OC)c1`, for which the Activity in the assay with Schistosoma mansoni [34] and with Schistosoma mansoni [35] was 100% throughout.
